The source of these data is patent US20100168176A1, “NOVEL COMPOUNDS, PHARMACEUTICAL COMPOSITIONS CONTAINING SAME, AND METHODS OF USE FOR SAME” (FASGEN LLC, priority 2006, published 2010).

Structures are written as SMILES. ≈ marks a conversion by molar mass, not a printed value.

Test [1] has as its target T1, purified human FAS (Homo sapiens, UniProt P49327).
T1 construct: Human FAS was purified from cultured ZR-75-1 human breast cancer cells; endogenous in cells; host or cells: ZR-75-1 human breast cancer cells (ATCC); Purified by hypotonic lysis, PEG precipitations and Mono Q anion exchange
Description: FAS enzymatic activity (malonyl-CoA dependent NADPH oxidation, OD340). In kind it is biochemical. As to conditions: purified human FAS from ZR-75-1 cells. The protocol: Purification of FAS from ZR-75-1 Human Breast Cancer Cells.
Human FAS was purified from cultured ZR-75-1 human breast cancer cells obtained from the American Type Culture Collection. The procedure, adapted from Linn et al., 1981, and Kuhajda et al., 1994, utilizes hypotonic lysis, successive polyethyleneglycol (PEG) precipitations, and anion exchange chromatography. ZR-75-1 cells are cultured at 37° C. with 5% CO2 in RPMI culture medium with 10% fetal bovine serum, penicillin and streptomycin.
Ten T150 flasks of confluent cells are lysed with 1.5 ml lysis buffer (20 mM Tris-HCl, pH 7.5, 1 mM EDTA, 0.1 mM phenylmethanesulfonyl fluoride (PMSF), 0.1% Igepal CA-630) and dounce homogenized on ice for 20 strokes. The lysate is centrifuged in JA-20 rotor (Beckman) at 20,000 rpm for 30 minutes at 4° C. and the supernatant is brought to 42 ml with lysis buffer. A solution of 50% PEG 8000 in lysis buffer is added slowly to the supernatant to a final concentration of 7.5%. After rocking for 60 minutes at 4° C., the solution is centrifuged in JA-20 rotor (Beckman) at 15,000 rpm for 30 minutes at 4° C. Solid PEG 8000 is then added to the supernatant to a final concentration of 15%. After the rocking and centrifugation is repeated as above, the pellet is resuspended overnight at 4° C. in 10 ml of Buffer A (20 mM K2HPO4, pH 7.4). […] FAS protein concentration is determined using the Coomassie Plus Protein Assay Reagent (Pierce) according to manufacturer's specifications using BSA as a standard. […]
FAS activity is measured by monitoring the malonyl-CoA dependent oxidation of NADPH spectrophotometrically at OD340 in 96-well plates (Dils et al and Arslanian et al, 1975). […]
The assay is performed on a Molecular Devices SpectraMax Plus Spectrophotometer. […] Using the kinetic protocol, the wells are blanked on duplicate wells containing 100 μl of 100 mM K2HPO4, pH 6.5 and the plate is read at OD340 at 10 sec intervals for 5 minutes to measure any malonyl-CoA independent oxidation of NADPH. […] The plate is read again as above with the kinetic protocol to measure the malonyl-CoA dependent NADPH oxidation. […]

Test [2] deals with MCF-7 human breast cancer cells. Description: [14C]acetate incorporation into total lipids. In kind it is cell-based. The note with it: MCF7. The protocol:
Measurement of [^14 C]acetate Incorporation into Total Lipids and Determination of IC50 of Compounds
This assay measures the incorporation of [^14C]acetate into total lipids and is a measure of fatty acid synthesis pathway activity in vitro. It is utilized to measure inhibition of fatty acid synthesis in vitro.
MCF-7 human breast cancer cells cultured as above, are plated at 5×10^4 cells per well in 24-well plates. Following overnight incubation, the compounds to be tested, solubilized in DMSO, are added at 5, 10, and 20 μg/ml in triplicate, with lower concentrations tested if necessary. DMSO is added to triplicate wells for a vehicle control. C75 is run at 5 and 10 μg/ml in triplicate as positive controls. After 4 hours of incubation, 0.25 μCi of [^14C]acetate (10 μl volume) is added to each well.
After 2 hours of additional incubation, medium is aspirated from the wells and 800 μl of chloroform:methanol (2:1) and 700 μl of 4 mM MgCl2 is added to each well. Contents of each well are transferred to 1.5 Eppendorf tubes, and spun at full-speed for 2 minutes in a high-speed Eppendorf Microcentrifuge 5415D. After removal of the aqueous (upper) layer, an additional 700 μl of chloroform:methanol (2:1) and 500 μl of 4 mM MgCl2 are added to each tube and then centrifuged for 1 minutes as above. The aqueous layer is removed with a Pasteur pipette and discarded. An additional 400 μl of chloroform:methanol (2:1) and 200 μl of 4 mM MgCl2 are added to each tube, then centrifuged and aqueous layer is discarded. The lower (organic) phase is transferred into a scintillation vial and dried at 40° C. under N2 gas. Once dried, 3 ml of scintillant (APB #NBC5104) is added and vials are counted for ^14C. The Beckman Scintillation counter calculates the average cpm values for triplicates.
The IC50 for the compounds is defined as the concentration of drug leading to a 50% reduction in [^14C]acetate incorporation into lipids compared to controls. This is determined by plotting the average cpm for each inhibitor concentration tested, performing linear regression and computing the best-fit line, r^2 values, and 95% confidence intervals. The average cpm values are computed by the Beckman scintillation counter (Model LS6500) for each compound concentration. Computation of linear regression, best-fit line, r^2, and 95% confidence intervals are calculated using Prism Version 3.0 (Graph Pad Software).

Test [3] concerns FAO. As to the kind of experiment: FAO SC 150 / FAO Max. As to conditions: for FAO Max: at the concentration given under E18.

T1 sequence (P49327 whole entry): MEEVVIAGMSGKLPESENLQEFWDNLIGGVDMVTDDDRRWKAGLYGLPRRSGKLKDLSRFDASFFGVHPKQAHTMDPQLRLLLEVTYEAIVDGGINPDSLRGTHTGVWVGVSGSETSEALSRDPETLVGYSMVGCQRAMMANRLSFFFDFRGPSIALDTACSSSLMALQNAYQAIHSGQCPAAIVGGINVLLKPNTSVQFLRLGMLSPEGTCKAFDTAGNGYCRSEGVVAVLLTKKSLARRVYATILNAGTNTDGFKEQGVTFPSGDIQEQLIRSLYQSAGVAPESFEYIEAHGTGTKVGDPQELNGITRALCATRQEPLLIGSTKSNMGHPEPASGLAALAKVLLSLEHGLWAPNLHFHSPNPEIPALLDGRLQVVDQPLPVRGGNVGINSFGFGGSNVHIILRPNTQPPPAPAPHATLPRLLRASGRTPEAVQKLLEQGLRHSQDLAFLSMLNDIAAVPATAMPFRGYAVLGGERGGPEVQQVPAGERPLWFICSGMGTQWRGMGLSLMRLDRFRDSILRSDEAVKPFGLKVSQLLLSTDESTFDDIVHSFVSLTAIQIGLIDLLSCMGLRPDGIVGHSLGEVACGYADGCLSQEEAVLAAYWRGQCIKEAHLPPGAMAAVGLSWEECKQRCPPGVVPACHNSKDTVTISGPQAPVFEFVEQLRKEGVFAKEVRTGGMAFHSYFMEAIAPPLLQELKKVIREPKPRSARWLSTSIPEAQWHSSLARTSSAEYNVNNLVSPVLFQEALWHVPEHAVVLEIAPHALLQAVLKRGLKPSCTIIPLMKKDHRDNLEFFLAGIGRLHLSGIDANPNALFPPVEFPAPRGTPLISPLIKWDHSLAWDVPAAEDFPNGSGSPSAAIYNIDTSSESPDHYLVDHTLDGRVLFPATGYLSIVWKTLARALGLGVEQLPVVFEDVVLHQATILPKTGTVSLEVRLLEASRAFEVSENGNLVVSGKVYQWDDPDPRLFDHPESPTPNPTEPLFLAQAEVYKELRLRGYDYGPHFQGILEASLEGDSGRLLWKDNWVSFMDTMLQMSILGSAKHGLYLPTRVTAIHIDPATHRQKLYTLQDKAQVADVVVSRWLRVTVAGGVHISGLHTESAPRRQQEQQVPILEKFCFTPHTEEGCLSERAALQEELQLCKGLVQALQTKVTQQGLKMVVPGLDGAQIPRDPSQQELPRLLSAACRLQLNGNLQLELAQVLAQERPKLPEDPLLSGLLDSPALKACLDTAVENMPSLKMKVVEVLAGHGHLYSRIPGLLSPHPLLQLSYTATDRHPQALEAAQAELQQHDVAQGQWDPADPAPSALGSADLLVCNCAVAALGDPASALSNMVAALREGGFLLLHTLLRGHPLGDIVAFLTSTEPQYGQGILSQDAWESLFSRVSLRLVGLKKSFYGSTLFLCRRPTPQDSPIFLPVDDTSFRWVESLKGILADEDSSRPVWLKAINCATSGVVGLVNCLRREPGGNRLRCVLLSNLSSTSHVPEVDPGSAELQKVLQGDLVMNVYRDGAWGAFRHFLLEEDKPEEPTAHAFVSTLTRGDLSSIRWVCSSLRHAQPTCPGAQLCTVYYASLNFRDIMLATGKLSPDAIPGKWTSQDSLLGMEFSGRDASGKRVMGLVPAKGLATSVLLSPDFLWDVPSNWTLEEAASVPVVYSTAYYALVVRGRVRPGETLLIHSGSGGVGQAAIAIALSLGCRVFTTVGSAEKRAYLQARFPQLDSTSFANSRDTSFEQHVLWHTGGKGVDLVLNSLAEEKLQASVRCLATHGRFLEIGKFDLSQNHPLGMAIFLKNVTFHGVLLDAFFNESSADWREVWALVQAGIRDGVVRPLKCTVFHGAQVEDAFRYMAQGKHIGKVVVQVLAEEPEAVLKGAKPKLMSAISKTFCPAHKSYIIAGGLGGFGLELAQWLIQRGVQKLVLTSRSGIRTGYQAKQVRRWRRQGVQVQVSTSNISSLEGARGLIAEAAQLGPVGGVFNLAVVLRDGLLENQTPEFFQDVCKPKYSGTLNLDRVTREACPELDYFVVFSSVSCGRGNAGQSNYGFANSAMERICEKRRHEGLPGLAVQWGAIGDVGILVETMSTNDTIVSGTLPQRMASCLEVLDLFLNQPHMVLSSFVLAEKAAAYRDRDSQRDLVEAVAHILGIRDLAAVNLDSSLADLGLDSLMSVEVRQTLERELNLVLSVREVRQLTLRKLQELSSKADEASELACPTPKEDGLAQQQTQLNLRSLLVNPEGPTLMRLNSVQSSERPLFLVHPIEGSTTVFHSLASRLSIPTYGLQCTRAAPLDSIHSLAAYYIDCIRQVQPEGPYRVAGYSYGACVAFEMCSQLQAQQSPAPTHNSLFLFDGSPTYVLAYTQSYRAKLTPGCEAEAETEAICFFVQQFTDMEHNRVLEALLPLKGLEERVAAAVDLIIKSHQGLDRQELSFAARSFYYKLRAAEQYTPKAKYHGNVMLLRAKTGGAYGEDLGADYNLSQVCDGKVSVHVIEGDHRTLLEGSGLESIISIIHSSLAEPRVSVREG

The term IC50 denotes the point on the concentration scale where inhibition reaches its midpoint. A high value points to weaker potency. `CCCCCCCCC1(C)SC(=O)C=C1OCC(=O)NNc1ccccc1Cl` (stereo not shown) [Compound 19, (5-Methyl-5-octyl-2-oxo-thiophen-4-yloxy)-acetic-acid-N′-(2-chlorophenyl)-hydrazide]: the “FAS (IC50)” value in test [1] is reported as “Neg”. For the same molecule, the half-maximal inhibitory concentration (IC50) in test [2] came to 39.8 ± 12.7 µg/mL (≈ 93.6 µM). For the same molecule, in test [3], the “FAO Max: concentration at which the maximum was seen” value turned out to be 0.125 µg/mL, the “FAO SC 150” value is “Neg” and the “FAO Max” value turned out to be 90% @.
Consider `CCCCCCCCC1(C)SC(=O)C=C1OCC(=O)NNC(=O)c1ccncc1` (stereo not shown) [Compound 20], for which the “FAS (IC50)” value in test [1] was “Neg”. Besides, in test [2], 17.4 µg/mL (≈ 41.5 µM) corresponded to half-maximal inhibition (IC50). Moreover, in test [3], the “FAO Max: concentration at which the maximum was seen” value was found to be 0.125 µg/mL, the “FAO SC 150” value was “Neg” and the “FAO Max” value is reported as 89% @.
